Experimental data: ChEMBL document CHEMBL1201862, “PubChem BioAssay data set” (2004)
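All cell lines were grown in 96-well plates and treated with compound for 48 hours. At the GI50, growth is halved.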 Calls of active or inactive are those of the source. Cut-off read from the data, not from the text of the source: active = GI50 up to about 1.1 µM and inactive = higher.

Experiments:
Test in all cases: NCI tumour cell line growth inhibition, 48 h
SF-295 = system: SF-295
K562 = system: K562
MOLT-4 = system: MOLT-4
Malme-3M = system: Malme-3M
EKVX = system: EKVX
ACHN = system: ACHN
NCI-H460 = system: NCI-H460
HCT-15 = system: HCT-15
U-251 = system: U-251
HOP-62 = system: HOP-62
NCI/ADR-RES = system: NCI/ADR-RES
MCF7 = system: MCF7
UACC-62 = system: UACC-62
NCI-H522 = system: NCI-H522
SK-MEL-5 = system: SK-MEL-5
COLO 205 = system: COLO 205
SN12C = system: SN12C
DU-145 = system: DU-145
MDA-N = system: MDA-N

Structure (SMILES) | GI50 (SF-295) | GI50 (K562) | GI50 (MOLT-4) | GI50 (Malme-3M) | GI50 (EKVX) | GI50 (ACHN) | GI50 (NCI-H460) | GI50 (HCT-15) [µM] | GI50 (U-251) | GI50 (HOP-62) | GI50 (NCI/ADR-RES) | GI50 (MCF7) | GI50 (UACC-62) | GI50 (NCI-H522) | GI50 (SK-MEL-5) | GI50 (COLO 205) | GI50 (SN12C) | GI50 (DU-145) | GI50 (MDA-N)
Cn1ncc2c(NCCc3ccccc3)nc(Cl)nc21 | 16.4 µM (inactive) | 17.6 µM (inactive) | 14.7 µM (inactive) | 58.9 µM (inactive) | 1.75 µM (inactive) | 28.6 µM (inactive) | 15.6 µM (inactive) | 25.4 | 30.2 µM (inactive) | 24.4 µM (inactive) | 16.4 µM (inactive) | 30 µM (inactive) | 5.97 µM (inactive) | 21.9 µM (inactive) | 17.6 µM (inactive) | 17.3 µM (inactive) | 44.6 µM (inactive) | 44.9 µM (inactive) | 23.2 µM (inactive)
O=C(/N=C1/NCC(CN2CCN(c3ccccc3)CC2)O1)Nc1ccccc1 (stereo not given) | > 100 µM (inactive) | > 100 µM (inactive) | 93.1 µM (inactive) | > 100 µM (inactive) | > 100 µM (inactive) | > 100 µM (inactive) | > 100 µM (inactive) | > 100 | > 100 µM (inactive) | > 100 µM (inactive) | > 100 µM (inactive) | > 100 µM (inactive) | > 100 µM (inactive) | > 100 µM (inactive) | > 100 µM (inactive) | > 100 µM (inactive) | > 100 µM (inactive) | > 100 µM (inactive) | > 100 µM (inactive)
O=C(O)c1ccc(Nc2nc3cc(C(F)(F)F)ccc3nc2-c2ccccc2)cc1 | 13.4 µM (inactive) | 16.8 µM (inactive) | 24.9 µM (inactive) | 23.7 µM (inactive) | 11.3 µM (inactive) | 19.1 µM (inactive) | 19.1 µM (inactive) | 12.9 | 14.9 µM (inactive) | 17.2 µM (inactive) | 22.5 µM (inactive) | > 10 µM (inactive) | 10.4 µM (inactive) | 16.3 µM (inactive) | 21 µM (inactive) | 17.5 µM (inactive) | 26 µM (inactive) | 25.8 µM (inactive) | 30.6 µM (inactive)
COc1ccc2c(c1)c(=O)c1c(NCCNCCO)ccc3c(=O)n(CCN(C)C)c(=O)n2c31 | 0.0861 µM (active) | 0.0333 µM (active) | < 0.01 µM (active) | 0.0989 µM (active) | 0.0889 µM (active) | 0.027 µM (active) | < 0.0202 µM (active) | 0.23 | < 0.0374 µM (active) | 0.109 µM (active) | 1.26 µM (inactive) | < 0.0276 µM (active) | 0.0662 µM (active) | < 0.0182 µM (active) | 0.0562 µM (active) | 0.0467 µM (active) | < 0.0198 µM (active) | < 0.0337 µM (active) | 0.112 µM (active)
CNc1ncnc2c1cnn2Cc1cn(CCCCO)nn1 | > 100 µM (inactive) | > 100 µM (inactive) | > 100 µM (inactive) | > 100 µM (inactive) | > 100 µM (inactive) | > 100 µM (inactive) | > 100 µM (inactive) | > 100 | > 100 µM (inactive) | > 100 µM (inactive) | > 100 µM (inactive) | > 100 µM (inactive) | > 100 µM (inactive) | > 100 µM (inactive) | > 100 µM (inactive) | > 100 µM (inactive) | > 100 µM (inactive) | > 100 µM (inactive) | > 100 µM (inactive)
